Measurements from patent US9624170B2, “4-(piperrazin-1-yl)-pyrrolidin-2-one compounds as monoacylglycerol lipase (MAGL) inhibitors” (TAKEDA PHARMACEUTICAL COMPANY LIMITED, priority 2013, dated 2017).

Target: T1, human MAGL (His-hMAGL) (Homo sapiens, UniProt Q99685)
T1 construct: made in house; host or cells: Escherichia coli BL21(DE3)
T1 sequence (Q99685 1-303): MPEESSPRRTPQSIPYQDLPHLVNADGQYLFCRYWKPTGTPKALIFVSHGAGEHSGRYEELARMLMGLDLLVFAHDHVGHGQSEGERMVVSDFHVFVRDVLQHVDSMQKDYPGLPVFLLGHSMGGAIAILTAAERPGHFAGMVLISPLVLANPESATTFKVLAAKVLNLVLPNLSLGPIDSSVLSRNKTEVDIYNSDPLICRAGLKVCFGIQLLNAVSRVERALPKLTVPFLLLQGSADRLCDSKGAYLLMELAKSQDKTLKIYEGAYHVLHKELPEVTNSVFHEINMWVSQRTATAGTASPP
Experiment: Measurement of MAGL inhibitory activity by mass spectrometry
Type: biochemical
Settings: MAGL inhibitory rate, test compound 10 μM, His-hMAGL, substrate 2-arachidonylglycerol, RapidFire-mass spectrometry
In short: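 His-tagged human MAGL was reacted with 150 μM 2-arachidonylglycerol substrate (stock, added by 5 μL) for 10 min at room temperature, then stopped with formic acid. Arachidonic acid product was quantified by RapidFire–triple-quadrupole MS in negative SRM mode, corrected by arachidonic acid-d8, and converted to percent inhibition.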

% inhibition at 10 μM	inhibition at 10 µM	SMILES
102%	–	O=C1Cc2ccc(-c3cccc(N4CC(N5CCN(C(=O)c6nccs6)CC5)CC4=O)c3)cc2N1 (stereo not drawn) [Example 267, 6-(3-(2-oxo-4-(4-(1,3-thiazol-2-ylcarbonyl)piperazin-1-yl)pyrrolidin-1-yl)phenyl)-1,3-dihydro-2H-indol-2-one(optical isomer)]
–	101%	O=C1CC(N2CCN(c3ncccn3)CC2)CN1c1cccc(-c2ccccc2Cl)c1 (stereo not drawn) [Example 269, 1-(2′-chlorobiphenyl-3-yl)-4-(4-(pyrimidin-2-yl)piperazin-1-yl)pyrrolidin-2-one]
–	101%	O=C(c1nccs1)N1CCN([C@@H]2CC(=O)N(c3ccc4c(c3)CCN4c3ncc(C(F)(F)F)cn3)C2)CC1 [Example 271, (4R)-4-(4-(1,3-thiazol-2-ylcarbonyl)piperazin-1-yl)-1-(1-(5-(trifluoromethyl)pyrimidin-2-yl)-2,3-dihydro-1H-indol-5-yl)pyrrolidin-2-one]
–	96%	Cc1cccc(-c2ccc(N3CC(N4CCN(C(=O)c5nccs5)CC4)CC3=O)cc2)n1 (stereo not drawn) [Example 274, 1-(4-(6-methylpyridin-2-yl)phenyl)-4-(4-(1,3-thiazol-2-ylcarbonyl)piperazin-1-yl)pyrrolidin-2-one]
–	103%	O=C(c1nccs1)N1CCN(C2CC(=O)N(c3cccc(-c4ccc(F)cc4Cl)c3)C2)CC1 (stereo not drawn) [Example 275, 1-(2′-chloro-4′-fluorobiphenyl-3-yl)-4-(4-(1,3-thiazol-2-ylcarbonyl)piperazin-1-yl)pyrrolidin-2-one]
–	98%	O=C(c1nccs1)N1CCN(C2CC(=O)N(c3ccc(F)c(-c4ccccc4Cl)c3)C2)CC1 (stereo not drawn) [Example 277, 1-(2′-chloro-6-fluorobiphenyl-3-yl)-4-(4-(1,3-thiazol-2-ylcarbonyl)piperazin-1-yl)pyrrolidin-2-one]
–	101%	O=C(c1nccs1)N1CCN(C2CC(=O)N(c3cccc(-c4ccc(F)c(Cl)c4)c3)C2)CC1 (stereo not drawn) [Example 284, 1-(3′-chloro-4′-fluorobiphenyl-3-yl)-4-(4-(1,3-thiazol-2-ylcarbonyl)piperazin-1-yl)pyrrolidin-2-one]
–	101%	O=C(c1nccs1)N1CCN(C2CC(=O)N(c3cccc(-c4ccccc4-c4ccccc4)c3)C2)CC1 (stereo not drawn) [Example 285, 1-(1,1′:2′,1″-terphenyl-3-yl)-4-(4-(1,3-thiazol-2-ylcarbonyl)piperazin-1-yl)pyrrolidin-2-one]
–	97%	O=C(c1nccs1)N1CCN(C2CC(=O)N(c3cccc(-c4ccc(C(F)(F)F)cc4)c3)C2)CC1 (stereo not drawn) [Example 288, 4-(4-(1,3-thiazol-2-ylcarbonyl)piperazin-1-yl)-1-(4′-(trifluoromethyl)biphenyl-3-yl)pyrrolidin-2-one]
–	101%	O=C(c1nccs1)N1CCN(C2CC(=O)N(c3cccc(-c4ccc(F)c(F)c4)c3)C2)CC1 (stereo not drawn) [Example 290, 1-(3′,4′-difluorophenyl-3-yl)-4-(4-(1,3-thiazol-2-ylcarbonyl)piperazin-1-yl)pyrrolidin-2-one]
–	104%	O=C(c1nccs1)N1CCN(C2CC(=O)N(c3cccc(-c4ccccc4Oc4ccccc4)c3)C2)CC1 (stereo not drawn) [Example 291, 1-(2′-phenoxybiphenyl-3-yl)-4-(4-(1,3-thiazol-2-ylcarbonyl)piperazin-1-yl)pyrrolidin-2-one]

More lines, now with the values behind:

SMILES	% inhibition at 10 μM	inhibition at 10 µM
O=C(c1nccs1)N1CCN(C2CC(=O)N(c3cccc(-c4cccnc4Cl)c3)C2)CC1 (stereo not drawn) [Example 266, 1-(3-(2-chloropyridin-3-yl)phenyl)-4-(4-(1,3-thiazol-2-ylcarbonyl)piperazin-1-yl)pyrrolidin-2-one(optical isomer)]	99%	–
Cc1ccccc1-c1cccc(N2CC(N3CCN(c4ncccn4)CC3)CC2=O)c1 (stereo not drawn) [Example 268, 1-(2′-methylbiphenyl-3-yl)-4-(4-(pyrimidin-2-yl)piperazin-1-yl)pyrrolidin-2-one]	–	101%
O=C(c1cscn1)N1CCN(C2CC(=O)N(c3ccc4c(ccn4-c4ccc(F)cc4)c3)C2)CC1 (stereo not drawn) [Example 270, 1-(1-(4-fluorophenyl)-1H-indol-5-yl)-4-(4-(1,3-thiazol-4-ylcarbonyl)piperazin-1-yl)pyrrolidin-2-one]	–	100%
Cc1ncnc(C)c1-c1cccc(N2CC(N3CCN(C(=O)c4nccs4)CC3)CC2=O)c1 (stereo not drawn) [Example 273, 1-(3-(4,6-Dimethylpyrimidin-5-yl)phenyl)-4-(4-(1,3-thiazol-2-ylcarbonyl)piperazin-1-yl)pyrrolidin-2-one]	–	100%
O=C(c1nccs1)N1CCN(C2CC(=O)N(c3ccc(F)c(-c4ccc(F)cc4Cl)c3)C2)CC1 (stereo not drawn) [Example 276, 1-(2′-chloro-4′,6-difluorobiphenyl-3-yl)-4-(4-(1,3-thiazol-2-ylcarbonyl)piperazin-1-yl)pyrrolidin-2-one]	–	102%
Cc1cc(C)cc(-n2ccc3cc(N4CC(N5CCN(C(=O)c6nccs6)CC5)CC4=O)ccc32)c1 (stereo not drawn) [Example 279, 1-(1-(3,5-dimethylphenyl)-1H-indol-5-yl)-4-(4-(1,3-thiazol-2-ylcarbonyl)piperazin-1-yl)pyrrolidin-2-one]	–	101%
O=C(c1nccs1)N1CCN(C2CC(=O)N(c3ccc4c(ccn4-c4cccc(C(F)(F)F)c4)c3)C2)CC1 (stereo not drawn) [Example 280, 4-(4-(1,3-thiazol-2-ylcarbonyl)piperazin-1-yl)-1-(1-(3-(trifluoromethyl)phenyl)-1H-indol-5-yl)pyrrolidin-2-one]	–	101%
O=C(c1nccs1)N1CCN(C2CC(=O)N(c3ccc4c(ccn4-c4nccc(C(F)(F)F)n4)c3)C2)CC1 (stereo not drawn) [Example 281, 4-(4-(1,3-thiazol-2-ylcarbonyl)piperazin-1-yl)-1-(1-(4-(trifluoromethyl)pyrimidin-2-yl)-1H-indol-5-yl)pyrrolidin-2-one]	–	99%
O=C(c1nccs1)N1CCN(C2CC(=O)N(c3cccc(-c4c(F)cc(F)cc4F)c3)C2)CC1 (stereo not drawn) [Example 282, 4-(4-(1,3-thiazol-2-ylcarbonyl)piperazin-1-yl)-1-(2′,4′,6′-trifluorobiphenyl-3-yl)pyrrolidin-2-one]	–	100%
O=C(c1nccs1)N1CCN(C2CC(=O)N(c3cccc(-c4ccc(Cl)cc4Cl)c3)C2)CC1 (stereo not drawn) [Example 283, 1-(2′,4′-dichlorobiphenyl-3-yl)-4-(4-(1,3-thiazol-2-ylcarbonyl)piperazin-1-yl)pyrrolidin-2-one]	–	101%
O=C(O)c1ccc(-c2cccc(N3CC(N4CCN(C(=O)c5nccs5)CC4)CC3=O)c2)cc1 (stereo not drawn) [Example 286, 3′-(2-oxo-4-(4-(1,3-thiazol-2-ylcarbonyl)piperazin-1-yl)pyrrolidin-1-yl)biphenyl-4-carboxylic acid]	–	91%
O=C(c1nccs1)N1CCN(C2CC(=O)N(c3cccc(-c4cccc(C(F)(F)F)c4)c3)C2)CC1 (stereo not drawn) [Example 287, 4-(4-(1,3-thiazol-2-ylcarbonyl)piperazin-1-yl)-1-(3′-(trifluoromethyl)biphenyl-3-yl)pyrrolidin-2-one]	–	103%
CCOc1ccccc1-c1cccc(N2CC(N3CCN(C(=O)c4nccs4)CC3)CC2=O)c1 (stereo not drawn) [Example 289, 1-(2′-ethoxybiphenyl-3-yl)-4-(4-(1,3-thiazol-2-ylcarbonyl)piperazin-1-yl)pyrrolidin-2-one]	–	103%
